Measured values from patent US20220387344A1, “COMPOSITIONS AND METHODS FOR INHIBITING COLLAGEN LOSS” (LYCORED LTD., priority 2019, published 2022).
Values belong to the compound of their own block, whether it stands above or below them.

Assays:
[1] = test system: KERTr human keratinocytes; assay: Viability of KERTr keratinocytes under H2O2 oxidative stress (XTT); format: cell-based; conditions: H2O2 alone
Method: (§1) The inventors used hydrogen peroxide, H2O2, to induce oxidative stress in KERTr human keratinocytes, and analyzed the effects on cell number (cell death) and the secretion of MMP1. Cells viability was determined using the XTT cell proliferation kit, and MMP1 levels were measured by ELISA.

[2] = test system: KERTr human keratinocytes; assay: MMP1 secretion by KERTr keratinocytes under H2O2 oxidative stress (ELISA); format: cell-based; conditions: H2O2 alone
Method: as §1

[3] = test system: NHDF cells; assay: Collagen 1a1 secretion by NHDF cells under H2O2 oxidative stress (ELISA); format: cell-based, human; conditions: 50 μM H2O2
Method: Cells were incubated with Lumenato for 24 h and then hydrogen peroxide (H2O2) was added, and cells were incubated for additional 24 h to induce oxidative stress. The incubation medium was collected and the levels of collagen 1 a 1 protein secretion to the medium were analyzed using a specific ELISA detection kit.

[4] = Plasma carotenoids after Lumenato capsules (bioavailability); format: in vivo; conditions: delivered within Lumenato capsules, plasma at 1, 2, 3 and 4 weeks post administration
From the text: The inventors have examined the bioavailability of carotenoids delivered within Lumenato capsules. The following carotenoids were quantified in the plasma at 1 week, 2 weeks, 3 weeks, and 4 weeks post administration. Phytoene, phytofluene and zeta-carotene which are the main carotenoids in Lumenato (the golden tomato extract) were absorbed well (FIG. 15).

[5] = test system: human neutrophils; assay: MPO secretion from stimulated human neutrophils; format: cell-based; conditions: agonist alone
Method: Blood was drawn from healthy volunteers. Neutrophils, at 95% purity were obtained by Ficoll-Hypaque centrifugation, dextran sedimentation, and hypotonic lysis of erythrocytes within 1 hour after blood was drawn. Cells were counted and their viability was determined by trypan blue exclusion. 100 μl of 37° C. O-dianisidine hydrochloride solution (1 mg O-dianisidine, 10 ml phosphate buffer pH 6.0+0.0015% H2O2) were added to 100 μl supernatant in a 96-well plate immediately before the optical density was followed by the change of absorbance at 450 nm at 2 minute intervals on a Thermomax Microplate Reader (Molecular Devices, Melno Park, Calif.). […] Neutrophils were activated by 100 ng/ml TNFα or 100 ng/ml IL8 that are released from the skin cells during exposure to UV and activated. In addition, neutrophils were activated with […] for comparison.

[6] = test system: human neutrophils; assay: MMP-9 secretion from stimulated human neutrophils (ELISA); format: cell-based; conditions: agonist alone
Method: Blood was drawn from healthy volunteers. Neutrophils, at 95% purity were obtained by Ficoll-Hypaque centrifugation, dextran sedimentation, and hypotonic lysis of erythrocytes within 1 hour after blood was drawn. Cells were counted and their viability was determined by trypan blue exclusion. Human MMP-9 concentrations in cell culture supernatants were quantified by ELISA kits (R&D systems Minneapolis, Minn., USA). […] Neutrophils were activated by 100 ng/ml TNFα or 100 ng/ml IL8 that are released from the skin cells during exposure to UV and activated. In addition, neutrophils were activated with […] for comparison.

[7] = test system: human neutrophils; assay: MPO activity of TNFα-activated neutrophils incubated overnight with single or combined phytonutrients; format: cell-based; conditions: sole addition
Method: 100 μl of 37° C. O-dianisidine hydrochloride solution (1 mg O-dianisidine, 10 ml phosphate buffer pH 6.0+0.0015% H2O2) were added to 100 μl supernatant in a 96-well plate immediately before the optical density was followed by the change of absorbance at 450 nm at 2 minute intervals on a Thermomax Microplate Reader (Molecular Devices, Melno Park, Calif.).
Tocopherol and phytosterol were added to 5×10^5 human neutrophils 20 min before addition of 100 ng/ml TNFα and maintained overnight at 37° C. in a humidified atmosphere containing 5% CO2. MPO activity was measured in the supernatant of the cultured neutrophils.
Zeta carotene, phytoene, tocopherol, phytosterol, or combinations thereof, were added to 5×10^5 human neutrophils 20 min before addition of 100 ng/ml TNFα and maintained overnight at 37° C. in humidified atmosphere containing 5% CO2. MPO activity was measured as escribed above.
The inventors examined the effect of multiple phytonutrients on MPO activity in stimulated neutrophils. The sole addition of tocopherol or phytosterol had no effect on the release and activity of MPO from neutrophils activated with TNFα (FIGS. 13A-13B).
The inventors also examined the effect of adding zeta carotene with either phytoene, a tocopherol, or a phytosterol, on MPO activity. […]

[8] = 2 hr of activation, TNFα or IL8 100 ng/ml

Compound: OO [H2O2, hydrogen peroxide]
cell number (cell death) [1]: dose dependent cell death | secretion of MMP1 [2]: increased secretion of MMP1 | reduction in collagen 1a1 secretion [3]: about 10 fold

absorption (plasma concentration) [4]: absorbed well
Compound: CC(C)=CCC/C(C)=C/CC/C(C)=C/CC/C(C)=C/C=C/C=C(\C)CC/C=C(\C)CC/C=C(\C)CCC=C(C)C [phytoene]

absorption (plasma concentration) [4]: absorbed well
Compound: CC(C)=CCC/C(C)=C/CC/C(C)=C/C=C/C(C)=C/C=C/C=C(\C)CC/C=C(\C)CC/C=C(\C)CCC=C(C)C [phytofluene]

absorption (plasma concentration) ([4]; listed as Zeta carotene): absorbed extremely well | absorption (plasma concentration) ([4]; listed as zeta-carotene): absorbed well
Compound: CC(C)=CCC/C(C)=C/CC\C(C)=C/C=C/C(C)=C/C=C/C=C(C)/C=C/C=C(/C)CC/C=C(\C)CCC=C(C)C [zeta carotene]

Compound: IL8: interleukin 8, agonist used to stimulate neutrophils
release of MPO ([5]; 4 h of activation): 0.4 ± 0.08 ng/mL | release of MMP-9 [6, 8]: 9.12 ± 0.2 ng/mL | release of MMP-9 ([6]; 4 hr of activation): 17.86 ± 0.4 ng/mL

Compound: TNFα
release of MPO ([5]; 4 h of activation): 0.28 ± 0.001 ng/mL | release of MMP-9 [6, 8]: 16.52 ± 0.5 ng/mL

Compound: formyl-Methionine-Leucine-Phenylalanine [fMLP]
release of MPO ([5]; 30 min of activation): 0.54 ± 0.004 ng/mL | release of MMP-9 ([6]; 30 min of activation): 10.41 ± 0.4 ng/mL | release of MMP-9 ([6]; 4 hr of activation): 13.45 ± 0.3 ng/mL

Compound: phytosterol
effect on release and activity of MPO [7]: no effect

Compound: tocopherol
effect on release and activity of MPO [7]: no effect
